Assay results from ChEMBL document CHEMBL4270597, “Donepezil-butylated hydroxytoluene (BHT) hybrids as Anti-Alzheimer's disease agents with cholinergic, antioxidant, and neuroprotective properties” (Eur J Med Chem, 2018).

Assays:
PC-12 [1] = assay: Reversal of H2O2-induced calcium overload in rat PC12 cells assessed as mean fluorescence intensity at 5 uM after 48 hrs by Fluo-3/AM probe based flow cytometry (reference value: 454014); assay type: functional
PC-12 [2] = assay: Neuroprotective activity against H2O2-induced apoptosis in rat PC12 cells assessed as late apoptotic cells at 5 uM after 24 hrs by Annexin V-FITC/propidium iodide staining-based flow cytometry (reference value: 25.3%); assay type: functional
PC-12 [3] = assay: Neuroprotective activity against H2O2-induced apoptosis in rat PC12 cells assessed as early apoptotic cells at 5 uM after 24 hrs by Annexin V-FITC/propidium iodide staining-based flow cytometry (reference value: 1.4%); assay type: functional
Mus musculus [4] = assay: Toxicity in ICR mouse assessed as diarrhea at 5 to 10 mg/kg, po administered for 10 consecutive days; assay type: organism-based; settings: in vivo
[5] = target: Amyloid-beta precursor protein (Homo sapiens) (UniProt P05067); assay: Inhibition of AChE-induced amyloid beta 40 (unknown origin) aggregation at 100 uM by thioflavin-T fluorescence assay relative to control
Chain of Amyloid-beta precursor protein (Homo sapiens) (P05067 whole entry): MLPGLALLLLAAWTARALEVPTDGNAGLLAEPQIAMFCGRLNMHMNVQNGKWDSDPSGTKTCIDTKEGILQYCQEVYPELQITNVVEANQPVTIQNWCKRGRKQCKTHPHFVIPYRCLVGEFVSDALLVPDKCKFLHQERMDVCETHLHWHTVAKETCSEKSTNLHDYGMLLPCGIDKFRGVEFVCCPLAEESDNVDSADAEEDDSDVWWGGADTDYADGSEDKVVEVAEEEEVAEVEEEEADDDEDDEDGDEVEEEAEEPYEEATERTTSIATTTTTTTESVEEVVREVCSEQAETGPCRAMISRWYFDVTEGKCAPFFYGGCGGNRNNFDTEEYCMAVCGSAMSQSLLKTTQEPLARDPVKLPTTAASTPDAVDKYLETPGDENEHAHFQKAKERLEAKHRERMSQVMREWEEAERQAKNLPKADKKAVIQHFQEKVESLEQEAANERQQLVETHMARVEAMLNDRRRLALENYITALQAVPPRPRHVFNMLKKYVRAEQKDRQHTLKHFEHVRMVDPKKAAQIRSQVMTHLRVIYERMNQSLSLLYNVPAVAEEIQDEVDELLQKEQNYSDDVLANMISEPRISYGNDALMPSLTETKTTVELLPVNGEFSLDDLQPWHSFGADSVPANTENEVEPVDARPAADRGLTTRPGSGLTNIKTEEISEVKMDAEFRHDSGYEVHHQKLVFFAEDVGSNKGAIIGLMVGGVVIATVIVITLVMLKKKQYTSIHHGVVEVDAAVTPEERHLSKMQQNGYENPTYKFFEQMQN

PC-12 [6] = assay: Reversal of H2O2-induced calcium overload in rat PC12 cells assessed as mean fluorescence intensity at 2.5 uM after 48 hrs by Fluo-3/AM probe based flow cytometry (reference value: 454014); assay type: functional
PC-12 [7] = assay: Cytotoxicity against rat PC12 cells assessed as decrease in cell viability at 30 uM after 24 hrs by MTT assay; assay type: cell-based; settings: pc-12, 24 h
Acetylcholinesterase = Acetylcholinesterase (Homo sapiens, UniProt P22303); assay: Mixed-type inhibition of human AChE using acetylthiocholine chloride as substrate incubated for 5 mins followed by substrate addition by Lineweaver-Burk plot analysis
Chain of Acetylcholinesterase (P22303 whole entry): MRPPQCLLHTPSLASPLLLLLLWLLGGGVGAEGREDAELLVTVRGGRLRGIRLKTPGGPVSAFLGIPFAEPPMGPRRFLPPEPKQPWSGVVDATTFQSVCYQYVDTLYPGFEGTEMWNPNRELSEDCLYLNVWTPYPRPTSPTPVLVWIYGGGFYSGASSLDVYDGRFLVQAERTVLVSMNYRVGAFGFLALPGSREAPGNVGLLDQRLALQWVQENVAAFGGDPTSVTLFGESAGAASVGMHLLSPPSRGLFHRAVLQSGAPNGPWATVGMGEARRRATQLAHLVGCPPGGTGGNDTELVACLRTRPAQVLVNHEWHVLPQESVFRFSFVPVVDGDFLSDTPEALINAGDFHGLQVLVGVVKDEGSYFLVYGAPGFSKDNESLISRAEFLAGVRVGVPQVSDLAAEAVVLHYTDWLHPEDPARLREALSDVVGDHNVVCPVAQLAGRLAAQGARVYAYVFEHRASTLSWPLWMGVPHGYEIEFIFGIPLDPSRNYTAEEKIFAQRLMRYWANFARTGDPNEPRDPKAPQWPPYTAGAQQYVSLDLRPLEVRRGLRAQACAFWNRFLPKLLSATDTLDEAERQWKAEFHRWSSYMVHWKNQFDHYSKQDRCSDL

PC-12 [8] = assay: Neuroprotective activity against H2O2-induced apoptosis in rat PC12 cells assessed as late apoptotic cells at 2.5 uM after 24 hrs by Annexin V-FITC/propidium iodide staining-based flow cytometry (reference value: 25.3%); assay type: functional
PC-12 [9] = assay: Neuroprotective activity against H2O2-induced apoptosis in rat PC12 cells assessed as necrotic cells at 2.5 uM after 24 hrs by Annexin V-FITC/propidium iodide staining-based flow cytometry (reference value: 4.9%); assay type: functional
PC-12 [10] = assay: Neuroprotective activity against H2O2-induced apoptosis in rat PC12 cells assessed as early apoptotic cells at 2.5 uM after 24 hrs by Annexin V-FITC/propidium iodide staining-based flow cytometry (reference value: 1.4%); assay type: functional
Mus musculus [11] = assay: Acute toxicity in mouse assessed as mortality at 677 to 2000 mg/kg, po measured continuously for first 4 hrs and intermittently for next 24 hrs and occasionally for 14 days; assay type: organism-based; settings: in vivo
[12] = target: T1, Amine oxidase [flavin-containing] A (Homo sapiens, UniProt P21397); assay: Inhibition of human MAO-A using p-tyramine as substrate incubated for 15 mins followed by substrate addition measured for 20 mins by fluorescence assay
T1 sequence (P21397 whole entry): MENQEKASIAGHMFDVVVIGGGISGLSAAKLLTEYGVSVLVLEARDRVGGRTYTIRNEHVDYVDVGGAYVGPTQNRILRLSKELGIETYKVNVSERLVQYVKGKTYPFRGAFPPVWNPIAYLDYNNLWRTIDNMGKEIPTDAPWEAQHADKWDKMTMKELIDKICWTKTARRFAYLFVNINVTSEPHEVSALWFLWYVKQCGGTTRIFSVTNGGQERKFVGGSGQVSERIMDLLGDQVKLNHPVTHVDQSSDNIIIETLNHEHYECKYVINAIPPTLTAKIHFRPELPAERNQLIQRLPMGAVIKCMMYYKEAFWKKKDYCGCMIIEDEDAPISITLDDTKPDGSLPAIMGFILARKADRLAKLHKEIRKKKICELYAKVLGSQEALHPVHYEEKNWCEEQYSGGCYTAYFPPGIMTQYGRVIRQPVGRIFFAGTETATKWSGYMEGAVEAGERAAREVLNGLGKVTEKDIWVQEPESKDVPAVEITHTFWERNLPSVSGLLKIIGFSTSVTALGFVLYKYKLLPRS

[13] = Effective permeability of the compound at […] after 16 hrs by PAMPA-BBB assay; assay type: ADME; settings: read-out: Peff
BV-2 [14] = assay: Inhibition of LPS-induced intracellular ROS production in mouse BV2 cells assessed as mean fluorescence intensity incubated with LPS for 18 hrs followed by compound addition measured after 36 hrs by DCFH-DA probe based flow cytometry; assay type: functional, cell-based
PC-12 [15] = assay: Neuroprotective activity against H2O2-induced apoptosis in rat PC12 cells assessed as early apoptotic cells at 10 uM after 24 hrs by Annexin V-FITC/propidium iodide staining-based flow cytometry (reference value: 1.4%); assay type: functional
PC-12 [16] = assay: Neuroprotective activity against H2O2-induced apoptosis in rat PC12 cells assessed as late apoptotic cells at 10 uM after 24 hrs by Annexin V-FITC/propidium iodide staining-based flow cytometry (reference value: 25.3%); assay type: functional
Mus musculus [17] = assay: Acute toxicity in mouse assessed as abnormal changes in water or food consumption at 677 to 2000 mg/kg, po measured continuously for first 4 hrs and intermittently for next 24 hrs and occasionally for 14 days; assay type: organism-based; settings: in vivo
BV-2 [18] = assay: Inhibition of LPS-induced intracellular ROS production in mouse BV2 cells assessed as mean fluorescence intensity at 20 uM incubated with LPS for 18 hrs followed by compound addition measured after 36 hrs by DCFH-DA probe based flow cytometry (reference value: 493530); assay type: functional
[19] = Half life in Sprague-Dawley rat liver microsomes in presence of NADPH by UPLC/MS analysis; settings: liver microsomes
Mus musculus [20] = assay: Acute toxicity in mouse assessed as abnormal changes in kidney at 2000 mg/kg, po measured continuously for first 4 hrs and intermittently for next 24 hrs and occasionally for 14 days by hematoxylin and eosin staining based microscopic method; assay type: organism-based; settings: in vivo
[21] = target: Cholinesterase (Equus caballus) (UniProt P81908); assay: Inhibition of equine serum BuChE at 100 uM using butyrylthiocholine iodide as substrate incubated for 5 mins followed by substrate addition measured after 180 secs by Ellman's method relative to control
Chain of Cholinesterase (Equus caballus) (P81908 whole entry): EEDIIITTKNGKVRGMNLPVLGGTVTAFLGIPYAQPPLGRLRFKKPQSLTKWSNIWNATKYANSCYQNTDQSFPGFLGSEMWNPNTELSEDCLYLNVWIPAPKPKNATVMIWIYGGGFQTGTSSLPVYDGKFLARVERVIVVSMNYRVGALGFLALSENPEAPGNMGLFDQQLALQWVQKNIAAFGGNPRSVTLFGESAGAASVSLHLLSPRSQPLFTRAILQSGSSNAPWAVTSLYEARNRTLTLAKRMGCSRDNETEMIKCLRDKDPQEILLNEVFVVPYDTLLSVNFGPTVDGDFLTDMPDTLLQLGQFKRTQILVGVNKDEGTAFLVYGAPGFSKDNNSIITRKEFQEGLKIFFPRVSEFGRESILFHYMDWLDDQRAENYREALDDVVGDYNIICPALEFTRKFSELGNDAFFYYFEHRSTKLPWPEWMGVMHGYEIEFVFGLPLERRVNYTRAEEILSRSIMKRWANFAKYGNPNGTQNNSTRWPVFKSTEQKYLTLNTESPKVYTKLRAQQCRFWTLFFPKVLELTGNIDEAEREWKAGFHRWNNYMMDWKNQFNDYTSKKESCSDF

BV-2 [22] = assay: Inhibition of LPS-induced intracellular ROS production in mouse BV2 cells assessed as mean fluorescence intensity at 10 uM incubated with LPS for 18 hrs followed by compound addition measured after 36 hrs by DCFH-DA probe based flow cytometry (reference value: 493530); assay type: functional
BV-2 [23] = assay: Inhibition of LPS-induced intracellular ROS production in mouse BV2 cells assessed as mean fluorescence intensity at 5 uM incubated with LPS for 18 hrs followed by compound addition measured after 36 hrs by DCFH-DA probe based flow cytometry (reference value: 493530); assay type: functional
Mus musculus [24] = assay: Acute toxicity in mouse assessed as body weight change at 677 to 2000 mg/kg, po measured continuously for first 4 hrs and intermittently for next 24 hrs and occasionally for 14 days; assay type: organism-based; settings: in vivo
Mus musculus [25] = assay: Acute toxicity in mouse assessed as abnormal changes in lung at 2000 mg/kg, po measured continuously for first 4 hrs and intermittently for next 24 hrs and occasionally for 14 days by hematoxylin and eosin staining based microscopic method; assay type: organism-based; settings: in vivo
PC-12 [26] = assay: Reversal of H2O2-induced calcium overload in rat PC12 cells after 48 hrs by Fluo-3/AM probe based flow cytometry; assay type: functional, cell-based
PC-12 [27] = assay: Neuroprotective activity against H2O2-induced apoptosis in rat PC12 cells assessed as necrotic cells at 10 uM after 24 hrs by Annexin V-FITC/propidium iodide staining-based flow cytometry (reference value: 4.9%); assay type: functional

## CC(C)(C)c1cc(/C=C/C(=O)NCCC2CCN(Cc3ccccc3F)CC2)cc(C(C)(C)C)c1O
PC-12 [1]
  Flu intensity: 251576
PC-12 [2]
  Activity: 9%
PC-12 [3]
  Activity: 0.3%
Mus musculus [4]
  Activity: Non-Toxic
[5]
  inhibition: 40.1%
PC-12 [6]
  Flu intensity: 347633
PC-12 [7]
  Activity: Toxic
Acetylcholinesterase
  Ki: 1.4 µM
PC-12 [8]
  Activity: 14.8%
PC-12 [9]
  Activity: 3.5%
PC-12 [10]
  Activity: 0.2%
Mus musculus [11]
  Activity: Non-Toxic
[12]
  IC50: 60.2 µM
[13]
  Papp at 16 h: 5.5 ×10⁻⁶ cm/s
BV-2 [14]
  inhibition: Dose-dependent effect
PC-12 [15]
  Activity: 0.3%
PC-12 [16]
  Activity: 5.7%
Mus musculus [17]
  Activity: Non-Toxic
BV-2 [18]
  Flu intensity: 310450
[19]
  half-life: 1.49 h
Mus musculus [20]
  Activity: Non-Toxic
[21]
  inhibition: 48%
BV-2 [22]
  Flu intensity: 390948
BV-2 [23]
  Flu intensity: 479700
Mus musculus [24]
  Activity: Non-Toxic
Mus musculus [25]
  Activity: Non-Toxic
PC-12 [26]
  Activity: Dose-dependent effect
PC-12 [27]
  Activity: 1.6%
